This is an account of results in patent publication US4562199A, “Imidazole derivatives, compositions and use” (priority 1983, dated 1985).

Where a name gives a salt, the structure may show the parent alone.

In the assay the target is T1, Thromboxane A2 Synthetase (Equus caballus, UniProt A0A9L0T8T9).
T1 construct: [1-14C]arachidonic acid substrate, TXB2 by TLC
T1 sequence (A0A9L0T8T9 2-534): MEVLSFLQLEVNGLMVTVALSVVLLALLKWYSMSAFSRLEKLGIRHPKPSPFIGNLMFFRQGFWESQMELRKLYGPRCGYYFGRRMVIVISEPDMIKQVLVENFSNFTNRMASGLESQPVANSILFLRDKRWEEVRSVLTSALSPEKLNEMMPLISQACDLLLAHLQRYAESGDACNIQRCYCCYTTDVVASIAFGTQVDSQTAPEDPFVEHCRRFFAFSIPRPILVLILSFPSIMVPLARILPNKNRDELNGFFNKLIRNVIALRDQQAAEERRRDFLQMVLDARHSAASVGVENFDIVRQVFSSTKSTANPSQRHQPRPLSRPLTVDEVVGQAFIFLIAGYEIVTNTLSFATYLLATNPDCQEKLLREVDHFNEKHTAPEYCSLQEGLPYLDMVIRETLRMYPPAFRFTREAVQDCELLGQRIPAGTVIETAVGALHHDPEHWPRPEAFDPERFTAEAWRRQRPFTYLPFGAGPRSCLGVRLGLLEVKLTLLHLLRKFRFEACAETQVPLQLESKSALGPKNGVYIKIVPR
The assay is described as follows: Determination of Thromboxane A2 Synthetase Inhibitory Activity. The note with it: lysed platelets from horse PRP; [1-14C]-arachidonic acid; 3 min at 37° C.; Tris buffer pH 7.5; read-out: ED50 (concentration of active compound required to reduce the enzyme activity by 50%) (converted). It counts as biochemical. As to the method:
The active compound was dissolved in a suitable solvent at a concentration of 5 mg/ml, and 20 μl added to 0.8 ml of 100 mM Tris buffer (pH 7.5).
The platelets from 5 ml of horse PRP were centrifuged and resuspended in 100 μl of Tris buffer. After lysis by sonication or freeze thawing, the platelet suspension was added to the solution of active compound and equilibrated for 5 min at room temperature. Then 300 ng (50 nCi) of [1-^14 -C]-arachidonic acid, dissolved in 100 μl Tris buffer, was added and the mixture incubated for 3 min at 37° C.
The reaction was stopped with 50 μl 2N HCl and the product extracted with 1.5 volumes ethyl acetate by whirling for 30 seconds. 1 ml saturated NaCl was added to the aqueous phase to prevent emulsion formation. The organic layer was removed, dried under N2 and the products redissolved in 50 μl chloroform/methanol mixture for quantitative spotting onto a TLC plate, and subsequent analysis.
The plate was developed in chloroform, methanol, acetic acid, water (90:8:1:0.8), dried and then visualised by autoradiography for 2-3 days.
The concentration of active compound required to reduce the enzyme activity by 50% (ED50) was established.
As to `O=C(O)c1ccc(Cn2ccnc2)c(Cl)c1` [Example 1, 1-(4-Carboxy-2-chlorobenzyl)imidazole hydrochloride], the IC50 is 24200 nM.

For the compound `CCOC(=O)/C=C/c1ccc(Cn2ccnc2)c(Cl)c1` [Example 2, Ethyl (E)-3-[3-chloro-4-(imidazol-1-ylmethyl)phenyl]prop-2-enoate], the IC50 is 1720 nM.

Consider `O=C(O)/C=C/c1ccc(Cn2ccnc2)c(Cl)c1` [Example 3, (E)-3-[3-Chloro-4-(imidazol-1-ylmethyl)phenyl]prop-2-enoic acid hydrochloride], for which the IC50 is 167 nM.

Regarding `O=C(O)CCc1ccc(Cn2ccnc2)c(Cl)c1` [Example 4, 3-[3-Chloro-4-(imidazol-1-ylmethyl)phenyl]propanoic acid hydrochloride], the IC50 is 266 nM.

With `O=C(O)C=Cc1ccc(Cn2ccnc2)c(Br)c1` [Example 6, 3-[3-Bromo-4-(imidazol-1-ylmethyl)phenyl]prop-2-enoic acid hydrochloride hydrate], the IC50 was 41.5 nM.

Take `O=C(O)c1ccc(C=CCn2ccnc2)cc1Cl` [Example 10, 1-[3-(4-Carboxy-3-chlorophenyl)prop-2-enyl]imidazole hydrochloride hemihydrate]: the IC50 was 1330 nM.
